Test results as given in PubChem BioAssay (NCI).
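A five-concentration, 48-hour dose response in 96-well plates underlies each endpoint, interpolated linearly between surrounding concentrations. At the GI50, growth is halved. TGI: total growth inhibition.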

Experiments:
Assay in all cases: NCI tumour cell line growth inhibition, 48 h
NCI-H226 lung = tested on: NCI-H226 lung
ACHN renal = tested on: ACHN renal
MOLT-4 leukemia = tested on: MOLT-4 leukemia
HT29 colon = tested on: HT29 colon
OVCAR-8 ovarian = tested on: OVCAR-8 ovarian
MCF7 breast = tested on: MCF7 breast
SF-295 CNS = tested on: SF-295 CNS
SNB-19 CNS = tested on: SNB-19 CNS
TK-10 renal = tested on: TK-10 renal
SF-268 CNS = tested on: SF-268 CNS

SMILES | GI50 (NCI-H226 lung) [µM] | TGI (NCI-H226 lung) [µM] | GI50 (ACHN renal) [µM] | TGI (ACHN renal) [µM] | GI50 (MOLT-4 leukemia) [µM] | TGI (MOLT-4 leukemia) [µM] | GI50 (HT29 colon) [µM] | TGI (HT29 colon) [µM] | GI50 (OVCAR-8 ovarian) [µM] | TGI (OVCAR-8 ovarian) [µM] | GI50 (MCF7 breast) [µM] | TGI (MCF7 breast) [µM] | GI50 (SF-295 CNS) [µM] | TGI (SF-295 CNS) [µM] | GI50 (SNB-19 CNS) [µM] | TGI (SNB-19 CNS) [µM] | GI50 (TK-10 renal) [µM] | TGI (TK-10 renal) [µM] | GI50 (SF-268 CNS) [µM] | TGI (SF-268 CNS) [µM]
O=C(/C=C/c1ccc(B(O)O)cc1)/C=C/c1ccc(B(O)O)cc1 | 3.23 | 16.1 | 3.66 | 13.8 | 3.59 | 66.3 | 1.82 | 3.95 | 9.39 | 22 | 0.415 | 3.89 | 2.02 | 5.66 | 6.09 | 21.2 | 5.12 | 17.3 | 3.39 | 12.1
Cc1nc2ccc(CN(C)c3ccc(C(=O)N[C@@H](CCC(=O)O)C(=O)O)s3)cc2c(=O)[nH]1 | – | > 100 | – | > 100 | – | > 100 | – | > 100 | – | > 100 | – | > 100 | – | > 100 | – | > 100 | – | > 100 | – | > 100
COc1cc(/C(Cl)=C/C=C/C(=O)c2c(C)[n+]([O-])c3ccc(Cl)cc3[n+]2[O-])cc(OC)c1OC | 13.3 | > 50 | 5.15 | 11.6 | 1.35 | 3.56 | 2.07 | 9.1 | 3.09 | > 50 | 1.76 | > 50 | 2.77 | 20.5 | 15 | > 50 | – | – | 5.54 | 14.2
Cc1ccccc1NC(=S)Nc1ccccn1 | > 100 | > 100 | > 100 | > 100 | > 100 | > 100 | > 100 | > 100 | > 100 | > 100 | > 100 | > 100 | > 100 | > 100 | > 100 | > 100 | > 100 | > 100 | > 100 | > 100
Nc1ccn(C2OC(CO)C(O)C2F)c(=O)n1 (stereo unspecified) | > 5000 | > 5000 | > 5000 | > 5000 | 2.98 | – | > 5000 | > 5000 | 57.1 | – | 2.98 | > 5000 | > 5000 | > 5000 | 19.5 | > 5000 | > 5000 | > 5000 | > 5000 | > 5000
C=C(Cn1c(=O)c2ccccc2c2ccccc21)c1ccc(C(=O)Nc2ccccc2N)cc1 | 16.7 | > 100 | 43.4 | > 100 | 0.0415 | 0.196 | 13.3 | > 83.8 | 11.8 | > 100 | 69.8 | > 100 | > 79.7 | > 100 | 42.9 | > 100 | 33.8 | > 100 | 12.6 | > 100
